Molecular target: human adenosine A2a receptor (Homo sapiens (Human), UniProt P29274)
Test: A2a receptor binding affinity, [3H]-NECA radioligand binding test
Settings: [3H]-NECA 37 nM; membrane from HEK-293 cells transfected with human adenosine A2a receptor
Method: The binding affinity of the compounds according to Examples of the present invention to the human adenosine A2a receptor was evaluated by entrusting SB drug discovery in the UK.
A radioligand binding test was conducted by using [3H]-NECA (5′-N-[adenine-2,8-3H]-ethylcarboxamidoadenosine) and an adenosine A2a membrane. As the adenosine A2a membrane, a cell membrane prepared from HEK-293 cells transfected with human adenosine A2a receptor was used. The membrane used for the test was prepared by incubating with a radioligand until equilibrium was reached. In order to separate the radioligand-bound membrane, the unbound radioligand was separated by using Packard filtermate Harverster and glass filter plates.
10 μL of test compound dissolved in binding buffer (50 mM Tris, 10 mM MgCl2, 1 mM EDTA pH 7.4) and 20 μL of [3H]-NECA (final concentration of 37 nM) or reference inhibitor was mixed with 20 μL of A2a membrane in an unbound 96-well plate and incubated at room temperature for one hour. Prior to filtration, a 96-well harvest filter plate was coated with 0.33% polyethylenimine for 30 minutes and then washed with assay buffer. The binding reaction was transferred to the filter plate and washed three times with wash buffer. The dish was then dried, scintillant was added, and radioactivity was counted in a scintillation counter (Topcount NXT, Packard).
The binding affinity IC50 (μM) for the human adenosine A2a receptor obtained according to the above experimental method is shown in the table below.

human adenosine A2a receptor, sequence (P29274 whole entry): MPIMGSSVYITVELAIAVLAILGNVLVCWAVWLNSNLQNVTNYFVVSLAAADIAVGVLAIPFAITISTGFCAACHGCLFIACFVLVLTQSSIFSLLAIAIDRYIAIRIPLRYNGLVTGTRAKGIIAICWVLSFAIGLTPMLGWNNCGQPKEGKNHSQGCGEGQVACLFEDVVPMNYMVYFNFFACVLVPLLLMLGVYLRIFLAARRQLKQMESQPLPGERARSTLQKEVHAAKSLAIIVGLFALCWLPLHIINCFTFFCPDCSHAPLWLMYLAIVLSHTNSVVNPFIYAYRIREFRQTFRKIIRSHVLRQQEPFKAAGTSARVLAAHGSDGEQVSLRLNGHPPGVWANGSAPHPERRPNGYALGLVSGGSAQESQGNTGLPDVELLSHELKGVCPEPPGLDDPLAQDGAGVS

Structure (SMILES)	IC50 [nM]
Nc1nc(N2CCC[C@H]2C(=O)N2CCN(C3CCC3)CC2)nc2nc(-c3ccco3)nn12 [Example 392, (S)-(1-(7-amino-2-(furan-2-yl)-[1,2,4]triazolo[1,5-a][1,3,5]triazin-5-yl)pyrrolidin-2-yl)(4-cyclobutylpiperazin-1-yl)methanone]	9
CC(C)(F)CN1CCN(C(=O)[C@@H](Nc2nc(N)n3nc(-c4ccco4)nc3n2)C2CC2)CC1 [Example 339, (S)-2-((7-amino-2-(furan-2-yl)-[1,2,4]triazolo[1,5-a][1,3,5]triazin-5-yl)amino)-2-cyclopropyl-1-(4-(2-fluoro-2-methylpropyl)piperazin-1-yl)ethan-1-one]	18
COC[C@H](Nc1nc(N)n2nc(-c3ccco3)nc2n1)C(=O)N1CCN(CC(F)(F)F)CC1 [Example 306, (S)-2-((7-amino-2-(furan-2-yl)-[1,2,4]triazolo[1,5-a][1,3,5]triazin-5-yl)amino)-3-methoxy-1-(4-(2,2,2-trifluoroethyl)piperazin-1-yl)propan-1-one]	30
C[C@H](Nc1nc(N)n2nc(-c3ccco3)nc2n1)C(=O)N1CCN(Cc2ccccc2F)CC1 [Example 22, (S)-2-((7-amino-2-(furan-2-yl)-[1,2,4]triazolo[1,5-a][1,3,5]triazin-5-yl)amino)-1-(4-(2-fluorobenzyl)piperazin-1-yl)propan-1-one]	11
Cc1ccc(-c2nc3nc(N4CCC[C@H]4C(=O)N4CCN(CC(F)(F)F)CC4)nc(N)n3n2)o1 [Example 89, (S)-(1-(7-amino-2-(5-methylfuran-2-yl)-[1,2,4]triazolo[1,5-a][1,3,5]triazin-5-yl)pyrrolidin-2-yl)(4-(2,2,2-trifluoroethyl)piperazin-1-yl)methanone]	17
Nc1nc(N2CCC[C@H]2C(=O)N2CC(COc3ccccc3)C2)nc2nc(-c3ccco3)nn12 [Example 114, (S)-(1-(7-amino-2-(furan-2-yl)-[1,2,4]triazolo[1,5-a][1,3,5]triazin-5-yl)pyrrolidin-2-yl)(3-(phenoxymethyl)azetidin-1-yl)methanone]	8
Nc1nc(N2CC[C@H]2C(=O)N2CCN(CC(F)(F)C(F)F)CC2)nc2nc(-c3ccco3)nn12 [Example 255, (S)-(1-(7-amino-2-(furan-2-yl)-[1,2,4]triazolo[1,5-a][1,3,5]triazin-5-yl)azetidin-2-yl)(4-(2,2,3,3-tetrafluoropropyl)piperazin-1-yl)methanone]	9
CC(C)(C(=O)N1CCN(C(=O)[C@@H]2CCCN2c2nc(N)n3nc(-c4ccco4)nc3n2)CC1)C(F)(F)F [Example 86, 1-(4-((7-amino-2-(furan-2-yl)-[1,2,4]triazolo[1,5-a][1,3,5]triazin-5-yl)-L-prolyl)piperazin-1-yl)-3,3,3-trifluoro-2,2-dimethylpropan-1-one]	15
Nc1nc(N[C@@H](CN2CCCCC2)C(=O)N2CCN(c3ccc(F)cc3F)CC2)nc2nc(-c3ccco3)nn12 [Example 272, (S)-2-((7-amino-2-(furan-2-yl)-[1,2,4]triazolo[1,5-a][1,3,5]triazin-5-yl)amino)-1-(4-(2,4-difluorophenyl)piperazin-1-yl)-3-(piperidin-1-yl)propan-1-one]	15
Nc1nc(N2CC[C@H]2C(=O)N2CCN(C(=O)Nc3ccccc3)CC2)nc2nc(-c3ccco3)nn12 [Example 110, (S)-4-(1-(7-amino-2-(furan-2-yl)-[1,2,4]triazolo[1,5-a][1,3,5]triazine-5-yl)azetidin-2-carbonyl)-N-phenylpiperazin-1-carboxamide]	12
COCCN1CCN(C(=O)[C@@H]2CCN2c2nc(N)n3nc(-c4ccc(C)o4)nc3n2)CC1 [Example 221, (S)-(1-(7-amino-2-(5-methylfuran-2-yl)-[1,2,4]triazolo[1,5-a][1,3,5]triazin-5-yl)azetidin-2-yl)(4-(2-methoxyethyl)piperazin-1-yl) methanone]	10
CCCCN1CCN(C(=O)[C@@H](Nc2nc(N)n3nc(-c4ccco4)nc3n2)c2ccccc2)CC1 [Example 190, (S)-2-((7-amino-2-(furan-2-yl)-[1,2,4]triazolo[1,5-a][1,3,5]triazin-5-yl)amino)-1-(4-butylpiperazin-1-yl)-2-phenylethan-1-one]	8
CCC(F)(F)CN1CCN(C(=O)[C@@H]2CCCN2c2nc(N)c3nc(-c4ccco4)oc3n2)CC1 [Example 270, (S)-(1-(7-amino-2-(furan-2-yl)oxazolo[5,4-d]pyrimidin-5-yl)pyrrolidin-2-yl)(4-(2,2-difluorobutyl)piperazin-1-yl)methanone]	9
Nc1nc(N[C@@H](CO)C(=O)N2CCN(Cc3ccccc3)CC2)nc2nc(-c3ccco3)nn12 [Example 233, (S)-2-((7-amino-2-(furan-2-yl)-[1,2,4]triazolo[1,5-a][1,3,5]triazin-5-yl)amino)-1-(4-benzylpiperazin-1-yl)-3-hydroxypropan-1-one]	14
Nc1nc(N2CCC[C@H]2C(=O)N2CCN(CC(F)(F)C(F)(F)F)CC2)nc2nc(-c3ccco3)nn12 [Example 227, (S)-(1-(7-amino-2-(furan-2-yl)-[1,2,4]triazolo[1,5-a][1,3,5]triazin-5-yl)pyrrolidin-2-yl)(4-(2,2,3,3,3-pentafluoropropyl)piperazin-1-yl)methanone]	9

Continued, values first:

IC50 [nM]	Structure (SMILES)
8	Nc1nc(N2CCCN2C(=O)N2CCN(CC(F)(F)F)CC2)nc2nc(-c3ccco3)nn12 [Example 353, (2-(7-amino-2-(furan-2-yl)-[1,2,4]triazolo[1,5-a][1,3,5]triazin-5-yl)pyrazolidin-1-yl)(4-(2,2,2-trifluoroethyl)piperazin-1-yl)methanone]
1	Cc1ccc(-c2nc3nc(N4CCC[C@H]4C(=O)N4CCN(c5ccc(F)cc5F)CC4)nc(N)n3n2)o1 [Example 87, (S)-(1-(7-amino-2-(5-methylfuran-2-yl)-[1,2,4]triazolo[1,5-a][1,3,5]triazin-5-yl)pyrrolidin-2-yl)(4-(2,4-difluorophenyl)piperazin-1-yl)methanone]
1	CCC(C)S(=O)(=O)N1CCN(C(=O)[C@@H]2CCCN2c2nc(N)n3nc(-c4ccco4)nc3n2)CC1 (stereo partly drawn) [Example 72, ((S)-1-(7-amino-2-(furan-2-yl)-[1,2,4]triazolo[1,5-a][1,3,5]triazin-5-yl)pyrrolidin-2-yl)(4-(sec-butylsulfonyl)piperazin-1-yl)methanone]
3	CC(F)(F)CN1CCC(C2CCN(C(=O)[C@@H]3CCCN3c3nc(N)n4nc(-c5ccco5)nc4n3)CC2)CC1 [Example 288, (S)-(1-(7-amino-2-(furan-2-yl)-[1,2,4]triazolo[1,5-a][1,3,5]triazin-5-yl)pyrrolidin-2-yl)(1′-(2,2-difluoropropyl)-[4,4′-bipiperidin]-1-yl)methanone]
7	C[C@@H]1CN(CC(F)(F)F)CCN1C(=O)[C@@H]1CCCN1c1nc(N)n2nc(-c3ccco3)nc2n1 [Example 205, ((S)-1-(7-amino-2-(furan-2-yl)-[1,2,4]triazolo[1,5-a][1,3,5]triazin-5-yl)pyrrolidin-2-yl)((R)-2-methyl-4-(2,2,2-trifluoroethyl)piperazin-1-yl)methanone]
6	Cc1cnc(C(=O)N2CCN(C(=O)[C@@H]3CCCN3c3nc(N)n4nc(-c5ccco5)nc4n3)CC2)s1 [Example 103]
7	CC(c1ccccc1)N1CCN(C(=O)[C@@H]2CCCN2c2nc(N)n3nc(-c4ccco4)nc3n2)CC1 (stereo partly drawn) [Example 66]
0.8	Nc1nc(N2CCC[C@H]2C(=O)N2CCN(CC(F)(F)C(F)(F)F)CC2)cc2nc(-c3ccco3)nn12 [Example 296, (S)-(1-(5-amino-2-(furan-2-yl)-[1,2,4]triazolo[1,5-c]pyrimidin-7-yl)pyrrolidin-2-yl)(4-(2,2,3,3,3-pentafluoropropyl)piperazin-1-yl)methanone]
6	Nc1nc(N2CCC[C@H]2C(=O)N2CCN(c3ccc(F)cc3)CC2)nc2nc(-c3ccco3)nn12 [Example 121, (S)-(1-(7-amino-2-(furan-2-yl)-[1,2,4]triazolo[1,5-a][1,3,5]triazin-5-yl)pyrrolidin-2-yl)(4-(4-fluorophenyl)piperazin-1-yl)methanone]
6	Nc1nc(N2CCC[C@H]2C(=O)N2CCN(CCCC(F)(F)F)CC2)nc2nc(-c3ccco3)nn12 [Example 239, (S)-(1-(7-amino-2-(furan-2-yl)-[1,2,4]triazolo[1,5-a][1,3,5]triazin-5-yl)pyrrolidin-2-yl)(4-(4,4,4-trifluorobutyl)piperazin-1-yl) methanone]
0.3	CCCC[C@H](Nc1nc(N)n2nc(-c3ccco3)nc2n1)C(=O)N1CCN(c2ccc(F)cc2F)CC1 [Example 164, (S)-2-((7-amino-2-(furan-2-yl)-[1,2,4]triazolo[1,5-a][1,3,5]triazin-5-yl)amino)-1-(4-(2,4-difluorophenyl)piperazin-1-yl)hexan-1-one]
0.135	Nc1nc(N[C@@H](Cc2ccccc2)C(=O)N2CCN(Cc3cccc(F)c3)CC2)nc2nc(-c3ccco3)nn12 [Example 17, (S)-2-((7-amino-2-(furan-2-yl)-[1,2,4]triazolo[1,5-a][1,3,5]triazin-5-yl)amino)-1-(4-(3-fluorobenzyl)piperazin-1-yl)-3-phenylpropan-1-one]

Source: US20240217978A1 (CHONG KUN DANG PHARMACEUTICAL CORP., priority 2021, published 2024)
